Measured values: patent US20240197672A1, “COMPOSITION FOR INHIBITING SKIN PIGMENTATION THROUGH AUTOPHAGY ACTIVITY CONTAINING PROCYANIDIN A2 AND QUERCETIN, AS ACTIVE INGREDIENTS” (KYUNGPOOK NATIONAL UNIVERSITY INDUSTRY-ACADEMIC COOPERATION …, priority 2022, published 2024)

Key:
mushroom tyrosinase = test: Tyrosinase inhibitory activity (L-DOPA, DOPA chrome at 475 nm); assay type: biochemical; conditions: for tyrosinase inhibitory activity: Example 1, FIG. 1; for Inhibitory Activity (%): Example 2, Table 2
Experimental: In the reaction mixture, 0.5 ml of 0.175 M sodium phosphate buffer (pH 6.8), 0.2 ml of a substrate solution containing 10 mM L-DOPA, and 0.1 ml of the sample solution were mixed, followed by the addition of 0.2 ml of mushroom tyrosinase (110 unit/ml). The reaction was carried out for 2 minutes at 25° C., and the DOPA chrome produced in the reaction mixture was measured at 475 nm. Tyrosinase inhibitory activity was expressed as the percentage reduction in absorbance compared to the control group without sample solution.

MNT-1 cells [1] = test: Cell viability / cytotoxicity, MTT assay; assay type: cell-based, human; conditions: MNT-1, 72 hours
Experimental: To examine the cell toxicity of procyanidin A2, quercetin, and their combination, a cell viability analysis was conducted. Specifically, cell survival and cytotoxicity were measured using the 3-(4,5-dimethylthiazol-2-yl)-2,5-diphenyltetrazoliumbromide (MTT) Assay. MNT-1 cells were seeded in a 96 well plate at 1×10^5 cells/well and cultured for 24 hours in a 37° C., 5% CO2 incubator. After that, each compound was treated according to Table 4 and cultured for 72 hours. Then, MTT solution at a final concentration of 0.5 mg/ml was added and reacted for 4 hours at 37° C. The media containing MTT solution was removed, and 100 μl of DMSO was treated in each well to dissolve the formazan precipitate formed in reaction with the living cells. Absorbance was measured at 550 nm using an ELISA reader (CLARIOstar Plus, BMG LABTECH, Germany).

MNT-1 cells [2] = test: Melanin production in MNT-1 cells (absorbance 490 nm); assay type: cell-based, human; conditions: MNT-1, 72 hours
Experimental: The melanin inhibitory effects of each substance were confirmed through an analysis of melanin production following treatment with procyanidin A2, quercetin, and their combination. Specifically, MNT-1 cells (human-derived melanoma skin cells) were treated for 72 hours with procyanidin A2, quercetin, and the combination at the maximum concentration without cytotoxicity according to Table 5. The negative control group was untreated, and arbutin, a tyrosinase inhibitor, was used as the positive control. Afterward, the media was removed, the cell bodies were dissolved with 1 N NaOH, heated at 95° C. for 5 minutes, and the absorbance was measured at 490 nm using a microplate reader (Molecular Devices, Sunnyvale, CA, USA).

[3] = test system: tyrosinase, TRP-1, TRP-2, MITF in MNT-1 cells; test: Melanin synthesis-related protein expression (western blot); assay type: cell-based, human; conditions: MNT-1, FIG. 5
Experimental: (§1) Specifically, after treating with procyanidin A2, quercetin, and the combination, MNT-1 cells were washed twice in ice-cold PBS and lysed in ice-cold RIPA buffer (Sigma-Aldrich). Protein concentration was measured using a Bicinchoninic acid (BCA) protein assay kit (Pierce, Rockford, IL, USA), and 35 μg of protein was separated using sodium dodecyl sulfate-polyacrylamide gel electrophoresis (10%) and transferred to a nitrocellulose membrane (Whatman, Dassel, Germany). The membrane was blocked in 5% non-fat milk in TBST buffer (1:5000) and then treated with primary (1:1000) and secondary antibodies (Table 6). Protein bands were detected using SuperSignal West Femto maximum sensitivity substrate (Thermo Fisher Scientific, Rockford, IL, USA) and quantified using Image Lab™ software (version 5.2.1).

[4] = test system: LC3-II, ATG5, Beclin-1, p62, LC3-I in MNT-1 cells; test: Autophagy activity-related protein expression (western blot); assay type: cell-based, human; conditions: for expression levels of LC3-II, ATG5, and Beclin-1: MNT-1, FIG. 6
Experimental: as §1
LC3-II, ATG5, and Beclin-1 are involved in the formation of autophagosomes and activate autophagy. In contrast, p62 and LC3-I, which show characteristics of being decomposed during autophagosome formation, decrease when autophagy activate. To verify the autophagy activity of procyanidin A2, quercetin, and their combination, the expression levels of autophagy-activity-related proteins were analyzed. The specific method for this experiment, except for using Table 8 for antibodies, was conducted in the same manner as the method in Example 5 for the analysis of melanin synthesis-related protein expression.

[5] = procyanidin A2 only, 50 μM, MNT-1

Structure (SMILES) | tyrosinase inhibitory activity (mushroom tyrosinase; 2.5 μM) | Inhibitory Activity (%) (mushroom tyrosinase; 2.5 μM) | tyrosinase inhibitory activity (mushroom tyrosinase; 5 μM) | Inhibitory Activity (%) (mushroom tyrosinase; 5 μM) | tyrosinase inhibitory activity (mushroom tyrosinase; 10 μM) | cytotoxicity (MNT-1 cells [1]; approximately 25 μM and below) | melanin production reduced to (NT set to 100%) (MNT-1 cells [2]; 20 μM) | protein expression of tyrosinase, TRP-1, and TRP-2 ([3]; 20 μM) | expression levels of LC3-II, ATG5, and Beclin-1 ([4]; 20 μM) | tyrosinase inhibition (mushroom tyrosinase; 300 μM, positive control, Example 1) | melanin production reduced by (NT set to 100%) (MNT-1 cells [2]; arbutin 1 mM) | cytotoxicity (MNT-1 cells [1]; 100 μM) | cytotoxicity (MNT-1 cells [1]; concentrations below 50 μM) | melanin production reduced to (NT set to 100%) (MNT-1 cells [2]; 50 μM) | protein expression of tyrosinase, TRP-1, and TRP-2 ([3]; 50 μM) | expression levels of LC3-II, ATG5, and Beclin-1 ([4]; 50 μM) | ATG5 and Beclin-1 expression [4, 5] | P62 expression [4, 5] | ratio of LC3-II to LC3-I [4, 5]
O=c1c(O)c(-c2ccc(O)c(O)c2)oc2cc(O)cc(O)c12 [quercetin, 2-(3,4-dihydroxyphenyl)-3,5,7-trihydroxy-4H-chromen-4-one] | 17.65% | 17.05% | 32.08% | 31.61% | 49.44% | no cytotoxicity | 64.5% | reduction | little to no significant change or only slight increases | – | – | – | – | – | – | – | – | – | –
OC[C@H]1O[C@@H](Oc2ccc(O)cc2)[C@H](O)[C@@H](O)[C@@H]1O [arbutin, reference compound] | – | – | – | – | – | – | – | – | – | 58.79% | about 57.1% | – | – | – | – | – | – | – | –
Oc1cc(O)c2c(c1)O[C@@]1(c3ccc(O)c(O)c3)Oc3cc(O)c4c(c3[C@@H]2[C@H]1O)O[C@H](c1ccc(O)c(O)c1)[C@H](O)C4 [procyanidin A2] | 29.82% | 30.27% | 51.12% | 49.04% | 68.81% | – | – | – | – | – | – | toxicity | no cytotoxicity | 72.3% | reduction | little to no significant change or only slight increases | slight increase | slight increase | remained similar to the control group
